Results: patent publication US20110144177A1, “Carbamoyl Esters That Inhibit Cholinesterase And Release Pharmacologically Active Agents” (priority 2003, published 2011)

Assays:
[1] = test system: scopolamine-induced amnesia; assay: Scopolamine induced amnesia in multiple trial passive (inhibitory) avoidance assay; assay type: in vivo, rat; settings: for Performance relative to scopolamine / Performance relative to saline: at the most effective dose, latency to enter dark chamber; for Performance relative to scopolamine: relative to impaired (scopolamine) group; for Performance relative to saline: relative to unimpaired (saline) control group; for most effective dose (the dose that increases the latency the most): i.p. immediately after training, scopolamine 0.75 mg/kg, retention 24 hours later
Description: Inhibitory avoidance is used as a cognitive performance screen because the discrete nature of the task allows for precise pharmacological manipulation and for the ability to selectively study acquisition, consolidation, or recall or learned information.
The inhibitory avoidance apparatus used in these experiments consisted of a light chamber and a dark chamber, which were joined by means of a sliding guillotine door. Training involved placing a rat inside the light chamber with its head facing away from the door. Ten seconds later, the sliding door was opened, and the latency to enter the dark chamber was recorded (100 second maximum). When the rat entered the dark chamber, it received a continuous footshock (0.4 mA) through the metal grid floor until it returned to the light chamber. This sequence of events continued until the rat remained in the light chamber for a period of 100 consecutive seconds or until a maximum of 5 footshocks had been received.
Retention testing, or the ability of the rat to remember the previous events in the inhibitory avoidance apparatus, was conducted 24 hours after the initial testing. The rat was placed into the light chamber with its head facing away from the door. Ten seconds later, the door was opened, allowing the rat access to the dark chamber. No footshock was administered during retention testing. Latency to enter the dark chamber was recorded (900 seconds maximum) and used as a measure of memory.
To assess the effects of the carbamoyl esters on scopolamine-induced amnesia, rats were injected with saline or scopolamine hydrochloride (0.75 mg/kg) 30 minutes prior to training on the Inhibitory Avoidance task. Immediately following the training trial, rats were injected with saline or the carbamoyl ester.
Retention for the task in scopolamine or saline treated rats, was assessed as described above, 24 hours later. No compound (drug) was administered to the rat prior to the retention test and no shock was given during retention testing. For retention testing, the rat was placed into the light chamber. Fifteen seconds later, the door was automatically opened and latency to enter the dark compartment was measured. The latency to enter the dark chamber is the primary measure of memory on this task. Carbamoyl esters were evaluated in this protocol.

[2] = test system: total cholinesterase activity in the brain; assay: Total cholinesterase activity in brain homogenate after i.p. injection; assay type: in vivo, Male Wistar rats; settings: for tolerability of the dose: i.p. dose giving a cholinergic behavioral effect with minimal side effects
Description: Animals were decapitated 3 hours after injection and the brains rapidly removed. The brain tissue was diced into small pieces, placed on ice and immediately homogenized with a Polytron PT1200 (Kinematic AG) in 10 ml ice cold Tris with 0.1% Triton-X and protease inhibitors. The protease inhibitors in the extraction buffer were Antipain (10 μM), Aprotinin (5 TIU/mg protein), Bestatin ([…]), Leupeptin (10 μM) and Pepstatin (1 μM). The final dilution of the homogenate in the final assay mixture was 120-fold.
Total cholinesterase activity was determined by a modification of the colorimetric method of Ellmann, et al. (Biochem. Pharmacol., 7:88-95 (1961)), as described above. Hydrolysis of acetylthiocholine was monitored indirectly by measurement of the formation of the conjugate between thiocholine and DTNB. Optical density at 405 nm was recorded during five (5) minutes employing a microplate spectrophotometer (Polarstar, BMG Labtech), and plotted against time. The initial rates were calculated from the slope of the linear portion of the graph.
Cholinesterase activity was normalized for protein content of the homogenate. Relative cholinesterase activity was calculated as the ratio of normalized cholinesterase activity in a rat treated with a control compound or a carbamoyl ester over normalized cholinesterase activity in saline treated rats.

[3] = target: human recombinant acetylcholinesterase (Homo sapiens, UniProt P22303); assay type: biochemical
human recombinant acetylcholinesterase, sequence (P22303 32-614): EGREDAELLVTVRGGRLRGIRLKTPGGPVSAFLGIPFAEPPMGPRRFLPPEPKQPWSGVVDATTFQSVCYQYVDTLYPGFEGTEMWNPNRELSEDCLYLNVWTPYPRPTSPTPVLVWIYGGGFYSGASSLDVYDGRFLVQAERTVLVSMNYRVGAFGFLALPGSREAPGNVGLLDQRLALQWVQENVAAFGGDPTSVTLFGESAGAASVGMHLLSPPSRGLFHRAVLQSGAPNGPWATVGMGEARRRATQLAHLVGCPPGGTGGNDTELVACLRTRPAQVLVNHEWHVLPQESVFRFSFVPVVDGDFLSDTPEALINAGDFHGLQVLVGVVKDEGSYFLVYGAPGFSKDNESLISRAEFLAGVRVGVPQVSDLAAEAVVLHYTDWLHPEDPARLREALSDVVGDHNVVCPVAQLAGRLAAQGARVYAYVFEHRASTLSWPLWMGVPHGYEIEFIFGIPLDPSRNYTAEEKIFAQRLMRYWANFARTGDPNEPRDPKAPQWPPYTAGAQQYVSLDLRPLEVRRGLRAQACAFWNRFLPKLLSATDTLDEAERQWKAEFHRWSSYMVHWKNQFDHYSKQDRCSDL

| SMILES | Performance relative to scopolamine [1] [%] | Performance relative to saline [1] [%] | most effective dose (the dose that increases the latency the most) [1] [mg/kg] | ChE inhibition ([2]; 2 mg/kg i.p., brain 3 hours after injection) [%] | Relative ChE Activity ([2]; 2 mg/kg i.p., brain 3 hours after injection, relative to saline treated rats) [%] | tolerability of the dose [2] | ChE inhibition ([2]; 8 mg/kg i.p., brain 3 hours after injection) [%] | fold increase in enzymatic activity compared to rivastigmine [3] [fold] |
| --- | --- | --- | --- | --- | --- | --- | --- | --- |
| CC(Cc1ccccc1)NC(=O)Oc1cccc([C@H](C)N(C)C)c1 (some centres unmarked) [Compound 3] | 294 | 100 | 1.4 |  |  |  |  |  |
| C[C@H](Cc1ccccc1)N(C)C(=O)Oc1cccc([C@H](C)N(C)C)c1 [Compound 7] | 298 | 64 | 0.25 | 38 | 62 | well-tolerated |  |  |
| C[C@H](Cc1ccccc1)NC(=O)Oc1cccc([C@H](C)N(C)C)c1 [Compound 9] | 306 | 83 | 0.1 |  |  | well-tolerated | 41 |  |
| C[C@H](Cc1ccccc1)NC(=O)Oc1ccc2c(c1)[C@]1(C)CCN(C)[C@@H]1N2C [Compound 14] | 186 | 51 | 0.02 |  |  |  |  | 10 |
| CCN(C)C(=O)Oc1cccc([C@H](C)N(C)C)c1 [Rivastigmine, reference compound] |  |  | 0.25 |  |  | well-tolerated |  |  |
